Experimental data: paper PMC12525028, “Blood–Brain Barrier Penetration of Novel 4-Trifluoromethyl-Coumarin Hybrids with Antibacterial Properties as Potential Brain Therapeutics in the Context of Spatially Diverse Healthcare Systems” (International Journal of Molecular Sciences, 2025)
≈ marks a conversion by molar mass, not a printed value. Entries after “also recorded” stand apart in the source; their conditions may differ. Where two headings read alike, the source gives them in different places. Each block holds one molecule with its values, some of them ahead of it.

Columns and labels:
in vitro [1] = conditions: mouse, cell viability, BALB/c-3T3, 0.5 µg/mL, MTT
in vitro [2] = conditions: mouse, cell viability, αT3-1, 0.5 µg/mL, MTT
MTT cytotoxicity assay [3] = conditions: mouse; for viability at 24 h, 0.5 µg/mL: cell viability, BALB/c-3T3, 0.5 µg/mL, MTT
MTT cytotoxicity assay [4] = conditions: mouse, αT3-1 pituitary gonadotrope cells; for viability at 24 h, 0.5 µg/mL: cell viability, αT3-1, 0.5 µg/mL, MTT
[5] = Transfer of coumarins from blood to CSF in sheep (third ventricle CSF, spectrophotometric); conditions: for Mean (μg/mL) Value with Centrifugation (average coumarin concentration in CSF) / Value (μg/mL) Without Centrifugation (average coumarin concentration in CSF): iv infusion 50 mg/500 mL over 15 min; for Mean (μg/mL) Value with Centrifugation (average coumarin concentration in CSF): CSF centrifuged; for Value (μg/mL) Without Centrifugation (average coumarin concentration in CSF): CSF not centrifuged; for change in CSF concentration level after centrifugation: paired data before/after centrifugation; for transfer to the CSF (coumarin concentration level higher than 0) / crossing of the BBB/BCSFB (in words) / metabolism after crossing the BBB/BCSFB (in words): sheep; for transfer to the CSF (coumarin concentration level higher than 0): after centrifugation of CSF; for crossing of the BBB/BCSFB (in words): iv administration; for metabolism after crossing the BBB/BCSFB (in words): from regression and absorbance curves
[6] = in vivo; for crossing of the BBB/BCSFB (in words): iv
[7] = Mass spectrometric determination of coumarin 2 in sheep CSF (ESI, positive mode); assay type: in vivo; conditions: sheep CSF after administration of compound 2, sodiated ion
Experimental: All reagents and solvents were purchased from Sigma-Aldrich (Saint Louis, MI, USA). All solvents were of analytical grade and were used without prior distillation. Merck silica gel 60 F254 plates were used for TLC (Thin-Layer Chromatography) analysis. The crude reaction mixtures were purified using column chromatography on Merck silica gel 60/230–400 mesh (Rahway, NJ, USA), with an appropriate mixture of hexanes and ethyl acetate as eluent. Nuclear magnetic resonance (NMR) spectra were performed on a Varian apparatus (Varian, Saint Louis, MI, USA) (400 MHz) and (500 MHz); the mass spectrometer was from Waters Company, Milford, MA, USA. Chemical shifts are expressed in ppm and the coupling constant (J) is expressed in Hz using TMS as an internal standard. […] Cerebrospinal fluid (CSF) samples were analyzed for the presence of the investigated coumarin derivative 2 using a SCIEX API 3000 triple quadrupole mass spectrometer (Science, Engineering, and Technology (SCIEX, Concord, ON, Canada)) equipped with an electrospray ionization (ESI) source operated in positive ion mode.
Sheep CSF samples were collected and stored at −80 °C until further analysis. […] The samples were analyzed using a SCIEX API 3000 triple quadrupole mass spectrometer equipped with an electrospray ionization (ESI) source operating in positive ion mode. […]

[8] = Solubility in water (observation); assay type: physicochemical
[9] = BALB/c-3T3 mouse embryonic fibroblast cells

SMILES: CCOC(=O)CNC(=O)C(Nc1ccc2c(C(F)(F)F)cc(=O)oc2c1)c1ccc(OC)cc1 (centres unmarked) [Compound 4]
- viability at 24 h, 0.5 µg/mL (in vitro [1]): > 96%
- viability at 24 h, 0.5 µg/mL (in vitro [2]): > 96%

- Mean (μg/mL) Value with Centrifugation (average coumarin concentration in CSF) ([5]; sheep CSF): 20 (+/−5) μg/mL
- Value (μg/mL) Without Centrifugation (average coumarin concentration in CSF) ([5]; sheep CSF): 30 (+/−5) μg/mL
- change in CSF concentration level after centrifugation ([5]; sheep CSF): significant decrease
- transfer to the CSF (coumarin concentration level higher than 0) [5]: statistically confirmed
SMILES: COc1ccc(CNC(=O)C(c2ccc(Br)cc2)N(C(=O)Cc2ccccc2)c2ccc3c(C)cc(=O)oc3c2)cc1 (centres unmarked) [Compound 8]
- IC50 at 24 h (MTT cytotoxicity assay [3]; [9]): 1.71 µg/mL (≈ 2.73 µM)
- IC50 at 24 h (MTT cytotoxicity assay [4]): 1.71 µg/mL (≈ 2.73 µM)
- crossing of the BBB/BCSFB (in words) [5]: penetrated the blood–brain barrier to the greatest extent; also recorded: capable of crossing the blood–brain barrier

SMILES: CCOC(=O)CNC(=O)C(Nc1ccc2c(C(F)(F)F)cc(=O)oc2c1)c1ccc(Br)cc1 (centres unmarked) [Compound 7]
- metabolism after crossing the BBB/BCSFB (in words) [6]: partially metabolized
- transfer to the CSF (coumarin concentration level higher than 0) [6]: statistically confirmed
- crossing of the BBB/BCSFB (in words) [6]: crossed the BBB/BCSFB

- Value (μg/mL) Without Centrifugation (average coumarin concentration in CSF) ([5]; sheep CSF): 5 (+/−5) μg/mL
- crossing of the BBB/BCSFB (in words) [5]: crossed the BBB/BCSFB
- metabolism after crossing the BBB/BCSFB (in words) [5]: partially metabolized
SMILES: CCOC(=O)CNC(=O)C(c1ccc(OC)cc1)N(C(=O)Cc1ccccc1)c1ccc2c(C)cc(=O)oc2c1 (centres unmarked) [Compound 5]
- viability at 24 h, 0.5 µg/mL (MTT cytotoxicity assay [3]; [9]): > 96%
- viability at 24 h, 0.5 µg/mL (MTT cytotoxicity assay [4]): > 96%

SMILES: CCOC(=O)CNC(=O)C(Nc1ccc2c(C(F)(F)F)cc(=O)oc2c1)c1ccccc1 (centres unmarked) [Compound 2]
- detection in CSF by ESI-MS [7]: presence of the compound as its sodiated ion
- solubility in water (in words) [8]: does not dissolve in water
- crossing of the BBB/BCSFB (in words) [6]: penetrated the blood–brain barrier to the greatest extent
- protein binding (in words) ([6]; sheep): binds well to proteins
- IC50 at 24 h (MTT cytotoxicity assay [3]): 6.58 µg/mL (≈ 14.7 µM)
- IC50 at 24 h (MTT cytotoxicity assay [4]): 6.58 µg/mL (≈ 14.7 µM)
- Value (μg/mL) Without Centrifugation (average coumarin concentration in CSF) ([5]; sheep CSF): 350 (+/−5) μg/mL
- average coumarin concentration in CSF after centrifugation ([5]; sheep CSF, iv infusion, after centrifugation): 118.32 µg/mL
- average coumarin concentration in CSF before centrifugation ([5]; sheep CSF, iv infusion, before centrifugation): 355.85 µg/mL
- change in CSF concentration level after centrifugation ([5]; sheep CSF): significant decrease
- transfer to the CSF (coumarin concentration level higher than 0) [5]: statistically confirmed

- Value (μg/mL) Without Centrifugation (average coumarin concentration in CSF) ([5]; sheep CSF): 8 (+/−5) μg/mL
SMILES: Cc1cc(=O)oc2cc(/N=C/c3ccccc3)ccc12 [Compound 6]
- viability at 24 h, 0.5 µg/mL (MTT cytotoxicity assay [3]; [9]): > 96%
- viability at 24 h, 0.5 µg/mL (MTT cytotoxicity assay [4]): > 96%

- Value (μg/mL) Without Centrifugation (average coumarin concentration in CSF) ([5]; sheep CSF): 2.5 (+/−5) μg/mL
- crossing of the BBB/BCSFB (in words) [5]: crossed the BBB/BCSFB
- metabolism after crossing the BBB/BCSFB (in words) [5]: partially metabolized
SMILES: COc1ccc(CNC(=O)C(c2ccccc2)N(C(=O)CCCC(=O)O)c2ccc3c(C)cc(=O)oc3c2)cc1 (centres unmarked) [Compound 3]
- viability at 24 h, 0.5 µg/mL (MTT cytotoxicity assay [3]; [9]): > 96%
- viability at 24 h, 0.5 µg/mL (MTT cytotoxicity assay [4]): > 96%

- Mean (μg/mL) Value with Centrifugation (average coumarin concentration in CSF) ([5]; sheep CSF): 2 (+/−5) μg/mL
- Value (μg/mL) Without Centrifugation (average coumarin concentration in CSF) ([5]; sheep CSF): 10 (+/−5) μg/mL
SMILES: COc1ccc(CNC(=O)C(c2ccc(OC)cc2)N(C(=O)CCCC(=O)O)c2ccc3c(C)cc(=O)oc3c2)cc1 (centres unmarked) [Compound 1]
